We go through 24 molecules from US10501421B1, “Substituted benzimidazoles as modulators of Ras signaling” (VANDERBILT UNIVERSITY, priority 2017, dated 2019).

SMILES strings stand for the structures. Counter-ions that a name gives are not always drawn.

What is called EC50 is the concentration needed to bring the measured effect to its halfway point. Read a low EC50 as an effect from little substance. For orientation: Ki means a dissociation constant, usually derived from enzyme kinetics or from competition with a known ligand.

Assay [1] has as its target Ras GEF SOS (Son of Sevenless) (Homo sapiens, UniProt Q07889). Nature of the assay: SOS-mediated nucleotide exchange on Ras (BODIPY-GDP fluorescence). The format is biochemical. To be noted: SOS-mediated exchange of BODIPY-GDP for GTP on Ras. An outline of the steps:
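Exchange rates were taken from single-exponential fits of the fluorescence time course as BODIPY-GDP on Ras was replaced by GTP. Compound went in first, then GTP and SOS. Mean rates plotted against concentration gave EC50 by four-parameter dose-response fitting.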

Another assay concerns the target T1, Son of Sevenless (SOS) (Homo sapiens, UniProt Q07889).
T1 sequence (Q07889 564-1049 limits assumed): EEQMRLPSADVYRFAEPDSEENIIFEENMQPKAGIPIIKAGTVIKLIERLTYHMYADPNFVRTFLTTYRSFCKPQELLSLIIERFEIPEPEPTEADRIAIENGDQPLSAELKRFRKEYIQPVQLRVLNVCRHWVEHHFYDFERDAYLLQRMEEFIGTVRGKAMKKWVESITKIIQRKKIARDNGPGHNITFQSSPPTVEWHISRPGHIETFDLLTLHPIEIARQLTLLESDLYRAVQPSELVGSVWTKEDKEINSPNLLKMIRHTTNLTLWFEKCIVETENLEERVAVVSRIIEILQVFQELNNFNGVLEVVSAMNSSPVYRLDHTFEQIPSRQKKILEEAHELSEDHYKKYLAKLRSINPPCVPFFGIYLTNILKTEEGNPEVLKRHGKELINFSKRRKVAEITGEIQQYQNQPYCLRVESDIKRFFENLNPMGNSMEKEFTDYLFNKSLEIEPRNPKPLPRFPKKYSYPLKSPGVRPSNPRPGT
Nature of the assay: Binding to SOS, fluorescence polarization anisotropy (FPA) probe displacement. To be noted: displacement of FITC-conjugated probe (Example 285), affinity calculated from IC50. An outline of the steps:
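Test compounds were titrated against SOS pre-bound to a fluorescein-labelled probe, with anisotropy plotted versus compound concentration. Binding affinities were derived from IC50 values obtained by four-parameter dose-response fitting.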

Sequence of Ras GEF SOS (Son of Sevenless) (P01112 1-166 partner limits assumed, one chain of several): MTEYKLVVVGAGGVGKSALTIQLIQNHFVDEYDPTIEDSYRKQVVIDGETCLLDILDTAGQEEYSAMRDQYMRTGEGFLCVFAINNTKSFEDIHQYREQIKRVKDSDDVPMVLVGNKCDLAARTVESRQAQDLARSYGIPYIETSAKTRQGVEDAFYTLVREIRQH

Turning to `Cc1cc(Cn2c(N3CCNCC3)nc3c(-c4ccnn4-c4cccc5ccccc45)cc(Cl)cc32)cc(C)c1F` [Example 177, 6-chloro-1-(4-fluoro-3,5-dimethylbenzyl)-4-(1-(naphthalen-1-yl)-1H-pyrazol-5-yl)-2-(piperazin-1-yl)-1H-benzo[d]imidazole trifluoroacetate], the EC50 in assay [1] lay within 30 to 100 µM. Also, the Ki at Son of Sevenless (SOS) was 1 to 5 µM.

Regarding `Cc1cc(Cn2c(N3CCNCC3)nc3c(-c4ccnn4-c4ccc(C(C)(C)C)cc4)cc(Cl)cc32)cc(C)c1F` [Example 178, 4-(1-(4-(tert-butyl)phenyl)-1H-pyrazol-5-yl)-6-chloro-1-(4-fluoro-3,5-dimethylbenzyl)-2-(piperazin-1-yl)-1H-benzo[d]imidazole trifluoroacetate], the half-maximal effective concentration (EC50) in assay [1] fell in the range of 5 to 30 µM. Further, the Ki on Son of Sevenless (SOS) was over 5 µM.

Consider `COC(=O)c1cnn(CCN(C)C)c1-c1cc(C)cc2c1nc(N1CCNCC1)n2Cc1ccc(F)c(Cl)c1` [Example 180, methyl 5-(1-(3-chloro-4-fluorobenzyl)-6-methyl-2-(piperazin-1-yl)-1H-benzo[d]imidazol-4-yl)-1-(2-(dimethylamino)ethyl)-1H-pyrazole-4-carboxylate], for which the EC50 in assay [1] is under 1 µM. Also, the Ki at Son of Sevenless (SOS) is 1 to 5 µM.

As to `Cc1cc(Cn2c(N3CCNCC3)nc3c(-c4ccccc4C#Cc4ccccc4)cc(Cl)cc32)cc(C)c1F` [Example 182, 6-chloro-1-(4-fluoro-3,5-dimethylbenzyl)-4-(2-(phenylethynyl)phenyl)-2-(piperazin-1-yl)-1H-benzo[d]imidazole trifluoroacetate], the EC50 in assay [1] is 1 to 5 µM. For the same molecule, at Son of Sevenless (SOS), the Ki is over 5 µM.

Molecule `Cc1cc(Cn2c(N3CCNCC3)nc3c(-c4ccccc4C#Cc4ccccc4Cl)cc(Cl)cc32)cc(C)c1F` [Example 183, 6-chloro-4-(2-((2-chlorophenyl)ethynyl)phenyl)-1-(4-fluoro-3,5-dimethylbenzyl)-2-(piperazin-1-yl)-1H-benzo[d]imidazole trifluoroacetate] had an EC50 in assay [1] of 1 to 5 µM. Further, the Ki at Son of Sevenless (SOS) was 0.5 to 1 µM.

`Cc1cc(Cn2c(N3CCNCC3)nc3c(-c4c(C)cccc4C#Cc4ccccc4Cl)cc(Cl)cc32)cc(C)c1F` [Example 184, 6-chloro-4-(2-((2-chlorophenyl)ethynyl)-6-methylphenyl)-1-(4-fluoro-3,5-dimethylbenzyl)-2-(piperazin-1-yl)-1H-benzo[d]imidazole trifluoroacetate] displayed an EC50 in assay [1] of 1 to 5 µM. Besides, the Ki on Son of Sevenless (SOS) is 0.5 to 1 µM.

For `Cc1ccccc1C#Cc1ccccc1-c1cc(Cl)cc2c1nc(N1CCNCC1)n2Cc1cc(C)c(F)c(C)c1` [Example 185, 6-chloro-1-(4-fluoro-3,5-dimethylbenzyl)-2-(piperazin-1-yl)-4-(2-(o-tolylethynyl)phenyl)-1H-benzo[d]imidazole trifluoroacetate], the EC50 in assay [1] fell in the range of 5 to 30 µM. For the same molecule, on Son of Sevenless (SOS), the Ki was over 5 µM.

As for `Cc1cc(N2CCC(N)CC2)c2nc(N3CCNCC3)n(Cc3cc(C)c(F)c(C)c3)c2c1` [Example 188, 1-(1-(4-fluoro-3,5-dimethylbenzyl)-6-methyl-2-(piperazin-1-yl)-1H-benzo[d]imidazol-4-yl)piperidin-4-amine trifluoroacetate], in assay [1], the EC50 lay in the range of 1 to 5 µM. Also, the inhibitory constant (Ki) on Son of Sevenless (SOS) was 0.5 to 1 µM.

In assay [1], `Cc1cc(N2CCC(CN)C2)c2nc(N3CCNCC3)n(Cc3cc(C)c(F)c(C)c3)c2c1` (stereo not drawn) [Example 189, (1-(1-(4-fluoro-3,5-dimethylbenzyl)-6-methyl-2-(piperazin-1-yl)-1H-benzo[d]imidazol-4-yl)pyrrolidin-3-yl)methanamine trifluoroacetate] registered a concentration giving a half-maximal response (EC50) of 1 to 5 µM. Further, the Ki on Son of Sevenless (SOS) was 0.5 to 1 µM.

In assay [1], `Cc1cc(N2CCNCC2)c2nc(N3CCNCC3)n(Cc3cc(C)c(F)c(C)c3)c2c1` [Example 190, 1-(4-fluoro-3,5-dimethylbenzyl)-6-methyl-2,4-di(piperazin-1-yl)-1H-benzo[d]imidazole trifluoroacetate] registered an EC50 of under 1 µM. In addition, on Son of Sevenless (SOS), the Ki was 0.5 to 1 µM.

In turn, `Cc1cc(N(C)CCN(C)C)c2nc(N3CCNCC3)n(Cc3cc(C)c(F)c(C)c3)c2c1` [Example 191, N^1-(1-(4-fluoro-3,5-dimethylbenzyl)-6-methyl-2-(piperazin-1-yl)-1H-benzo[d]imidazol-4-yl)-N^1,N^2,N^2-trimethylethane-1,2-diamine trifluoroacetate] displayed an EC50 in assay [1] of 1 to 5 µM. Besides, the Ki on Son of Sevenless (SOS) was 0.5 to 1 µM.

`CNCCN(C)c1cc(C)cc2c1nc(N1CCNCC1)n2Cc1cc(C)c(F)c(C)c1` [Example 192, N^1-(1-(4-fluoro-3,5-dimethylbenzyl)-6-methyl-2-(piperazin-1-yl)-1H-benzo[d]imidazol-4-yl)-N^1,N^2-dimethylethane-1,2-diamine trifluoroacetate] came in with an EC50 in assay [1] of 1 to 5 µM. Further, the Ki on Son of Sevenless (SOS) was 0.5 to 1 µM.

With `Cc1cc(NCCN2CCOCC2)c2nc(N3CCNCC3)n(Cc3cc(C)c(F)c(C)c3)c2c1` [Example 193, 1-(4-fluoro-3,5-dimethylbenzyl)-6-methyl-N-(2-morpholinoethyl)-2-(piperazin-1-yl)-1H-benzo[d]imidazol-4-amine trifluoroacetate], the 50% effective concentration (EC50) in assay [1] was in the range of 1 to 5 µM. For the same molecule, the Ki on Son of Sevenless (SOS) was 0.5 to 1 µM.

The molecule `COCCN1CCN(c2cc(C)cc3c2nc(N2CCNCC2)n3Cc2cc(C)c(F)c(C)c2)CC1` [Example 195, 1-(4-fluoro-3,5-dimethylbenzyl)-4-(4-(2-methoxyethyl)piperazin-1-yl)-6-methyl-2-(piperazin-1-yl)-1H-benzo[d]imidazole trifluoroacetate] displayed an EC50 in assay [1] of 1 to 5 µM. Moreover, the Ki at Son of Sevenless (SOS) is 0.5 to 1 µM.

For the molecule `Cc1cc(NCCCCN(C)C)c2nc(N3CCNCC3)n(Cc3cc(C)c(F)c(C)c3)c2c1` [Example 196, N^1-(1-(4-fluoro-3,5-dimethylbenzyl)-6-methyl-2-(piperazin-1-yl)-1H-benzo[d]imidazol-4-yl)-N^4,N^4-dimethylbutane-1,4-diamine trifluoroacetate], the EC50 in assay [1] fell in the range of 1 to 5 µM. Besides, the Ki at Son of Sevenless (SOS) was 0.5 to 1 µM.

`Cc1cc(NCCCN(C)C)c2nc(N3CCNCC3)n(Cc3cc(C)c(F)c(C)c3)c2c1` [Example 197, N^1-(1-(4-fluoro-3,5-dimethylbenzyl)-6-methyl-2-(piperazin-1-yl)-1H-benzo[d]imidazol-4-yl)-N^3,N^3-dimethylpropane-1,3-diamine trifluoroacetate] came in with an EC50 in assay [1] of 1 to 5 µM. For the same molecule, the Ki on Son of Sevenless (SOS) was 0.5 to 1 µM.

For `Cc1cc(NC[C@H]2CCNC2)c2nc(N3CCNCC3)n(Cc3cc(C)c(F)c(C)c3)c2c1` [Example 198, (S)-1-(4-fluoro-3,5-dimethylbenzyl)-6-methyl-2-(piperazin-1-yl)-N-(pyrrolidin-3-ylmethyl)-1H-benzo[d]imidazol-4-amine trifluoroacetate], the EC50 in assay [1] lay in the range of 1 to 5 µM. Further, the inhibition constant Ki on Son of Sevenless (SOS) is 0.5 to 1 µM.

`Cc1cc(OCCN2CCN(C)CC2)c2nc(N3CCNCC3)n(Cc3cc(C)c(F)c(C)c3)c2c1` [Example 201, 1-(4-fluoro-3,5-dimethylbenzyl)-6-methyl-4-(2-(4-methylpiperazin-1-yl)ethoxy)-2-(piperazin-1-yl)-1H-benzo[d]imidazole] came in with an EC50 in assay [1] of under 1 µM. For the same molecule, the Ki at Son of Sevenless (SOS) was 0.5 to 1 µM.

In assay [1], `Cc1cc(OCCN(C)C)c2nc(N3CCNCC3)n(Cc3cc(C)c(F)c(C)c3)c2c1` [Example 203, 2-((1-(4-fluoro-3,5-dimethylbenzyl)-6-methyl-2-(piperazin-1-yl)-1H-benzo[d]imidazol-4-yl)oxy)-N,N-dimethylethan-1-amine] registered an EC50 of under 1 µM. The Ki on Son of Sevenless (SOS) was 0.5 to 1 µM.

As to `Cc1cc(OC2CCOC2)c2nc(N3CCNCC3)n(Cc3cc(C)c(F)c(C)c3)c2c1` (stereo not drawn) [Example 204, 1-(4-fluoro-3,5-dimethylbenzyl)-6-methyl-2-(piperazin-1-yl)-4-((tetrahydrofuran-3-yl)oxy)-1H-benzo[d]imidazole], in assay [1], the EC50 was under 1 µM. For the same molecule, the Ki on Son of Sevenless (SOS) is 1 to 5 µM.

The molecule `Cc1cc(Cn2c(N3CCNCC3)nc3c(OC4CCN(C)CC4)cccc32)ccc1F` [Example 205, 1-(4-fluoro-3-methylbenzyl)-4-((1-methylpiperidin-4-yl)oxy)-2-(piperazin-1-yl)-1H-benzo[d]imidazole] had an EC50 in assay [1] of under 1 µM. In addition, the Ki at Son of Sevenless (SOS) is 1 to 5 µM.

`Cc1cc(Cn2c(N3CCNCC3)nc3c(OC4CCNC4)cccc32)ccc1F` (stereo not drawn) [Example 206, 1-(4-fluoro-3-methylbenzyl)-2-(piperazin-1-yl)-4-(pyrrolidin-3-yloxy)-1H-benzo[d]imidazole] came in with a concentration for a half-maximal effect (EC50) in assay [1] of under 1 µM. Also, the Ki at Son of Sevenless (SOS) was over 5 µM.

Molecule `Cc1cc(Cn2c(NCCN)nc3c(OCCN4CCCC4)cccc32)ccc1F` [Example 207, N^1-(1-(4-fluoro-3-methylbenzyl)-4-(2-(pyrrolidin-1-yl)ethoxy)-1H-benzo[d]imidazol-2-yl)ethane-1,2-diamine] displayed an EC50 in assay [1] of under 1 µM. In addition, at Son of Sevenless (SOS), the Ki is 1 to 5 µM.

`Cc1cc(Cn2c(N3CCNCC3)nc3c(OCCN4CCCC4)cccc32)ccc1F` [Example 208, 1-(4-fluoro-3-methylbenzyl)-2-(piperazin-1-yl)-4-(2-(pyrrolidin-1-yl)ethoxy)-1H-benzo[d]imidazole]: the EC50 in assay [1] is under 1 µM. Moreover, on Son of Sevenless (SOS), the Ki was over 5 µM.
